Measurements: PubChem BioAssay (NCI)
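GI50: concentration for 50% inhibition of growth. At the TGI there is no net growth.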

Experiments:
Test in all cases: DTP human tumour cell line panel, 384-well format
T-47D breast = tested on: T-47D breast
SR leukemia = tested on: SR leukemia
HCC-2998 colon = tested on: HCC-2998 colon
MOLT-4 leukemia = tested on: MOLT-4 leukemia
786-0 renal = tested on: 786-0 renal
OVCAR-5 ovarian = tested on: OVCAR-5 ovarian
OVCAR-8 ovarian = tested on: OVCAR-8 ovarian
ACHN renal = tested on: ACHN renal
MCF7 breast = tested on: MCF7 breast
OVCAR-4 ovarian = tested on: OVCAR-4 ovarian
NCI-H23 lung = tested on: NCI-H23 lung
SF-295 CNS = tested on: SF-295 CNS
EKVX NSCLC = tested on: EKVX NSCLC
SK-OV-3 ovarian = tested on: SK-OV-3 ovarian
IGROV1 ovarian = tested on: IGROV1 ovarian
NCI-H522 lung = tested on: NCI-H522 lung
A498 renal = tested on: A498 renal
SN12C renal = tested on: SN12C renal
A549 NSCLC = tested on: A549 NSCLC
UO-31 renal = tested on: UO-31 renal
NCI-H322M lung = tested on: NCI-H322M lung
RPMI-8226 leukemia = tested on: RPMI-8226 leukemia
NCI-H226 lung = tested on: NCI-H226 lung
HCT-15 colon = tested on: HCT-15 colon
BT-549 breast = tested on: BT-549 breast
CAKI-1 renal = tested on: CAKI-1 renal
MDA-MB-468 breast = tested on: MDA-MB-468 breast
SF-268 CNS = tested on: SF-268 CNS
CCRF-CEM leukemia = tested on: CCRF-CEM leukemia
SF-539 CNS = tested on: SF-539 CNS
U251 glioblastoma = tested on: U251 glioblastoma
HOP-62 NSCLC = tested on: HOP-62 NSCLC
K-562 leukemia = tested on: K-562 leukemia
HL-60(TB) leukemia = tested on: HL-60(TB) leukemia
HS 578T breast = tested on: HS 578T breast
TK-10 renal = tested on: TK-10 renal
PC-3 prostate = tested on: PC-3 prostate
NCI-H460 NSCLC = tested on: NCI-H460 NSCLC
SNB-75 CNS = tested on: SNB-75 CNS
HOP-92 NSCLC = tested on: HOP-92 NSCLC
NCI/ADR-RES ovarian = tested on: NCI/ADR-RES ovarian
SW-620 colon = tested on: SW-620 colon
SNB-19 CNS = tested on: SNB-19 CNS
OVCAR-3 ovarian = tested on: OVCAR-3 ovarian
HT29 colon = tested on: HT29 colon
MDA-MB-435 melanoma = tested on: MDA-MB-435 melanoma
SK-MEL-5 melanoma = tested on: SK-MEL-5 melanoma
MDA-MB-231 breast = tested on: MDA-MB-231 breast

Work on Cc1ncc(CCCN(C)C)cc1Nc1ncc2c(n1)-c1ccc(C(F)(F)F)cc1NC(=S)C2 yielded a GI50 (T-47D breast) of 37.5 nM, a TGI (T-47D breast) of 15.1 µM and a GI50 (SR leukemia) of under 10 nM. For the same compound, the TGI (SR leukemia) was under 10 nM, the GI50 (HCC-2998 colon) was under 10 nM and the TGI (HCC-2998 colon) was 13.9 nM. The GI50 (MOLT-4 leukemia) was under 10 nM, the TGI (MOLT-4 leukemia) was under 10 nM and the GI50 ([…]-0 renal) was under 10 nM. It also gave a TGI (786-0 renal) of 305 nM, a GI50 (OVCAR-5 ovarian) of under 10 nM and a TGI (OVCAR-5 ovarian) of 173 nM. The GI50 (OVCAR-8 ovarian) was under 10 nM, the TGI (OVCAR-8 ovarian) was under 10 nM and the GI50 (ACHN renal) was 44.4 nM. It also gave a TGI (ACHN renal) of 15.3 µM, a GI50 (MCF7 breast) of under 10 nM and a TGI (MCF7 breast) of 2270 nM. It also gave a GI50 (OVCAR-4 ovarian) of under 10 nM, a TGI (OVCAR-4 ovarian) of 13.2 µM and a GI50 (NCI-H23 lung) of under 10 nM. For the same compound, the TGI (NCI-H23 lung) was under 10 nM, the GI50 (SF-295 CNS) was under 10 nM and the TGI (SF-295 CNS) was 17.1 nM. For the same compound, the GI50 (EKVX NSCLC) was 11.6 nM, the TGI (EKVX NSCLC) was 17.8 µM and the GI50 (SK-OV-3 ovarian) was under 10 nM. The TGI (SK-OV-3 ovarian) was 1690 nM, the GI50 (IGROV1 ovarian) was under 10 nM and the TGI (IGROV1 ovarian) was 16.1 µM. For the same compound, the GI50 (NCI-H522 lung) was under 10 nM, the TGI (NCI-H522 lung) was under 10 nM and the GI50 (A498 renal) was under 10 nM. It also gave a TGI (A498 renal) of 12.7 µM, a GI50 (SN12C renal) of 138 nM and a TGI (SN12C renal) of 3.47 µM. The GI50 (A549 NSCLC) was under 10 nM, the TGI (A549 NSCLC) was 170 nM and the GI50 (UO-31 renal) was 99 nM. The TGI (UO-31 renal) was 19.8 µM, the GI50 (NCI-H322M lung) was 4.46 µM and the TGI (NCI-H322M lung) was 19.8 µM. For the same compound, the GI50 (RPMI-8226 leukemia) was under 10 nM, the TGI (RPMI-8226 leukemia) was under 10 nM and the GI50 (NCI-H226 lung) was 512 nM. For the same compound, the TGI (NCI-H226 lung) was 6.71 µM, the GI50 (HCT-15 colon) was under 10 nM and the TGI (HCT-15 colon) was 35.1 nM. For the same compound, the GI50 (BT-549 breast) was under 10 nM, the TGI (BT-549 breast) was 37.1 nM and the GI50 (CAKI-1 renal) was 59.2 nM. It also gave a TGI (CAKI-1 renal) of 12.9 µM, a GI50 (MDA-MB-468 breast) of under 10 nM and a TGI (MDA-MB-468 breast) of under 10 nM. For the same compound, the GI50 (SF-268 CNS) was under 10 nM, the TGI (SF-268 CNS) was 1990 nM and the GI50 (CCRF-CEM leukemia) was under 10 nM. For the same compound, the TGI (CCRF-CEM leukemia) was under 10 nM, the GI50 (SF-539 CNS) was under 10 nM and the TGI (SF-539 CNS) was 117 nM. For the same compound, the GI50 (U251 glioblastoma) was under 10 nM, the TGI (U251 glioblastoma) was 11.2 µM and the GI50 (HOP-62 NSCLC) was under 10 nM. It also gave a TGI (HOP-62 NSCLC) of 37 nM, a GI50 (K-562 leukemia) of under 10 nM and a TGI (K-562 leukemia) of under 10 nM. The GI50 (HL-60(TB) leukemia) was under 10 nM, the TGI (HL-60(TB) leukemia) was under 10 nM and the GI50 (HS 578T breast) was under 10 nM. The TGI (HS 578T breast) was 21.5 nM, the GI50 (TK-10 renal) was 1730 nM and the TGI (TK-10 renal) was 19.7 µM. It also gave a GI50 (PC-3 prostate) of under 10 nM, a TGI (PC-3 prostate) of 14.3 µM and a GI50 (NCI-H460 NSCLC) of under 10 nM. The TGI (NCI-H460 NSCLC) was under 10 nM, the GI50 (SNB-75 CNS) was under 10 nM and the TGI (SNB-75 CNS) was 15.2 nM. It also gave a GI50 (HOP-92 NSCLC) of under 10 nM, a TGI (HOP-92 NSCLC) of 6.28 µM and a GI50 (NCI/ADR-RES ovarian) of 31.4 nM. It also gave a TGI (NCI/ADR-RES ovarian) of 179 nM, a GI50 (SW-620 colon) of under 10 nM and a TGI (SW-620 colon) of 14.8 nM. For the same compound, the GI50 (SNB-19 CNS) was under 10 nM, the TGI (SNB-19 CNS) was 641 nM and the GI50 (OVCAR-3 ovarian) was under 10 nM. It also gave a TGI (OVCAR-3 ovarian) of under 10 nM, a GI50 (HT29 colon) of under 10 nM and a TGI (HT29 colon) of under 10 nM. It also gave a GI50 (MDA-MB-435 melanoma) of under 10 nM, a TGI (MDA-MB-435 melanoma) of under 10 nM and a GI50 (SK-MEL-5 melanoma) of under 10 nM. The TGI (SK-MEL-5 melanoma) was 12.7 nM, the GI50 (MDA-MB-231 breast) was under 10 nM and the TGI (MDA-MB-231 breast) was 12.2 µM.
